Measured values published in patent US20150352081A1, “USE OF PIDOTIMOD TO TREAT ATOPIC DERMATITIS” (POLICHEM S.A., priority 2012, published 2015).
Square brackets hold non-standard residues; d marks the D form. Peptide text beside a SMILES is read from it. pGlu = O=C1CC[C@@H](C(=O)O)N1; Thz = O=C(O)[C@@H]1CSCN1

Key:
[1] = system: patients affected by atopic dermatitis; experiment: Safety/tolerability of the treatment in patients with atopic dermatitis; format: in vivo, human; settings: 5 patients, two applications daily, 12 weeks
Description: (§1) An evaluation of the activity of pidotimod was tested on patients affected by atopic dermatitis, in order to assess the efficacy in terms of improvement of the pathology by means of erythema evaluation. The safety of the treatment was also evaluated. The study was performed in 5 patients (4 females and 1 male, aged between 22-35 years, mean=29) with a clinical diagnosis of atopic dermatitis having as inclusion criteria the affection of the anterior flexural crease of the elbow or of the knee.
(§2) The study product was taken with the composition of the Example 1 at a dosage of two applications daily on the affected skin.
(§3) During the trial, the following visits were performed: • baseline—T0 (before the product use) • intermediate visit—T6 (after 6 weeks of treatment) • final visit—T12 (after 12 weeks of treatment)

[2] = system: patients affected by atopic dermatitis; experiment: Erythema score in patients with atopic dermatitis treated topically with pidotimod cream; format: in vivo, human; set-up: Effect on erythema score: dose or concentration left out as unconfirmed
Description: as §1, §2, §3
The efficacy of the product was expressed by mean of a 5 points erythema score, assessing the score at the baseline, at the intermediate visit and the final one.

## O=C1CC[C@@H](C(=O)N2CSC[C@H]2C(=O)O)N1 [pidotimod, (4R)-3-(5-oxo-L-prolyl)-1,3-thiazolidine-4-carboxylic acid] ([pGlu]-[Thz]-OH)
[1]
  Side effects: no side effects were reported
  Tolerability of the treatment: very well tolerated
[2]; T12 (12 weeks) vs. T0 (baseline)
  Student t test p of the erythema score change: < 0.05
[2]; pidotimod cream, two applications daily, 12 weeks, compared to the baseline
  Effect on erythema score: able to improve the erythema score
